In ChEMBL document CHEMBL2321705, “Novel diaryl ureas with efficacy in a mouse model of malaria” (Bioorg Med Chem Lett, 2013):
Calls of active or inactive are those of the source. The rule behind the calls is not given here.

How the values were obtained:
[1] = test system: Plasmodium falciparum; assay: Antimalarial activity against Plasmodium falciparum 3D7 assessed as inhibition of parasite growth; assay type: functional, organism-based
[2] = test system: Plasmodium falciparum; assay: Antimalarial activity against Plasmodium falciparum Dd2 assessed as inhibition of parasite growth; assay type: functional, organism-based
[3] = test system: Plasmodium berghei; assay: Antimalarial activity against Plasmodium berghei infected CD-1 mouse assessed as survival beyond 8 days at 256 mg/kg, sc bid; assay type: functional, organism-based; parameters: dose 256 mg/kg
[4] = test system: Plasmodium falciparum; assay: Antimalarial activity against Plasmodium falciparum delta pfpm2 assessed as growth inhibition; assay type: functional, organism-based
[5] = test system: Plasmodium falciparum; assay: Antimalarial activity against Plasmodium falciparum delta pfpm1 assessed as growth inhibition; assay type: functional, organism-based
[6] = test system: Plasmodium falciparum; assay: Antimalarial activity against Plasmodium falciparum delta pfpm3 assessed as growth inhibition; assay type: functional, organism-based
[7] = test system: Plasmodium berghei; assay: Antimalarial activity against Plasmodium berghei infected CD-1 mouse assessed as survival beyond 8 days at 128 mg/kg, sc bid; assay type: functional, organism-based; parameters: dose 128 mg/kg
[8] = test system: Plasmodium falciparum; assay: Antimalarial activity against chloroquine-resistant Plasmodium falciparum Dd2 assessed as growth inhibition; assay type: functional, organism-based
[9] = test system: Plasmodium berghei; assay: Antimalarial activity against Plasmodium berghei infected CD-1 mouse assessed as survival at 128 mg/kg, sc bid measured on day 31; assay type: functional, organism-based; parameters: dose 128 mg/kg
[10] = test system: Plasmodium falciparum; assay: Antimalarial activity against Plasmodium falciparum delta pfpm4 assessed as growth inhibition; assay type: functional, organism-based
[11] = Inhibition of Plasmodium falciparum cysteine protease plasmepsin 2
[12] = test system: Plasmodium falciparum; assay: Antimalarial activity against Plasmodium falciparum D6 assessed as inhibition of parasite growth; assay type: functional, organism-based
[13] = test system: Plasmodium falciparum; assay: Antimalarial activity against Plasmodium falciparum W2 assessed as inhibition of parasite growth; assay type: functional, organism-based

| Compound | EC50 [1] | EC50 [2] | also measured |
| --- | --- | --- | --- |
| O=C(Nc1ccc(Cl)c(Cl)c1)Nc1cc(C(F)(F)F)ccc1Oc1ccc(Cl)cc1Cl | 200 nM | 200 nM |  |
| O=C(Nc1cc(C(F)(F)F)ccc1Oc1ccc(Cl)cc1Cl)Nc1cc(C(F)(F)F)ccc1N1CCCCC1 | 3.9 µg/mL | 2.7 µg/mL |  |
| O=C(Nc1cc(Cl)cc(Cl)c1)Nc1cc(C(F)(F)F)ccc1Oc1ccc(Cl)cc1Cl | 0.047 µg/mL | 0.046 µg/mL |  |
| NCc1cc(Cl)ccc1Oc1ccc(Cl)cc1Cl | 2300 nM | 4300 nM |  |
| O=C(Nc1ccc(-c2ccccc2)cc1)Nc1cc(C(F)(F)F)ccc1Oc1ccc(Cl)cc1Cl | 0.29 µg/mL | 0.29 µg/mL |  |
| O=C(Nc1ccc(Cl)c(Cl)c1)Nc1cc(Cl)ccc1Oc1ccc(Cl)cc1Cl | 1900 nM | 2500 nM | Survival [3]: inactive |
| CS(=O)(=O)Nc1cc(Cl)ccc1Oc1ccc(Cl)cc1Cl | 38000 nM | 60000 nM |  |
| O=C(Nc1ccc(F)c(C(F)(F)F)c1)Nc1cc(C(F)(F)F)ccc1Oc1ccc(Cl)cc1Cl | 130 nM | 150 nM |  |
| NC(=O)Nc1cc(Cl)ccc1Oc1ccc(Cl)cc1Cl | 18000 nM | 18000 nM |  |
| Nc1ccc(NC(=O)Nc2cc(C(F)(F)F)ccc2Oc2ccc(Cl)cc2Cl)cc1C(F)(F)F | 1500 nM | 3600 nM |  |
| O=C(Nc1ccc(Cc2ccccc2)cc1)Nc1cc(C(F)(F)F)ccc1Oc1ccc(Cl)cc1Cl | 0.6 µg/mL | 0.3 µg/mL |  |
| O=C(Nc1ccc(Cc2ccccc2)cc1)Nc1ccc(Oc2ccc(Cl)cc2Cl)c(C(F)(F)F)c1 | 1.3 µg/mL | 1.2 µg/mL |  |
| O=C(Nc1cccnc1)Nc1cc(C(F)(F)F)ccc1Oc1ccc(Cl)cc1Cl | 0.6 µg/mL | 1 µg/mL |  |
| NC(=O)Nc1ccc(Oc2ccc(Cl)cc2O)c(Cl)c1 | 100000 nM | 100000 nM |  |
| CC(=O)Nc1cc(Cl)ccc1Oc1ccc(Cl)cc1Cl | 33000 nM | 48000 nM |  |
| O=C(Nc1ccc(Cl)cc1)Nc1cc(Cl)ccc1Oc1ccc(Cl)cc1Cl | 2000 nM | 5000 nM | Survival [3]: inactive |
| O=S(=O)(Nc1cc(Cl)ccc1Oc1ccc(Cl)cc1Cl)c1ccccc1 | 4700 nM | 5100 nM |  |
| O=C(Nc1cc(C(F)(F)F)ccc1Oc1ccc(Cl)cc1Cl)Nc1ccccc1-c1ccccc1 | 0.6 µg/mL | 0.9 µg/mL |  |
| O=C(NCc1ccco1)Nc1cc(C(F)(F)F)ccc1Oc1ccc(Cl)cc1Cl | 2.3 µg/mL | 2.6 µg/mL |  |
| O=C(Nc1ccc([N+](=O)[O-])c(C(F)(F)F)c1)Nc1cc(C(F)(F)F)ccc1Oc1ccc(Cl)cc1Cl | 72 nM | 72 nM |  |
| O=C(Nc1ccccc1)Nc1cc(Cl)ccc1Oc1ccc(Cl)cc1Cl | 730 nM | 1200 nM |  |
| O=C(Nc1cc(C(F)(F)F)ccc1Oc1ccc(Cl)cc1Cl)Nc1cccc2ccccc12 | 1200 nM | 810 nM | Survival [3]: inactive |
| O=C(Nc1cc(C(F)(F)F)ccc1Oc1ccc(Cl)cc1Cl)NC1c2ccccc2-c2ccccc21 | 0.8 µg/mL | 1.4 µg/mL |  |
| O=C(Nc1cccc(S(=O)(=O)C(F)(F)F)c1)Nc1cc(C(F)(F)F)ccc1Oc1ccc(Cl)cc1Cl | 0.077 µg/mL | 0.077 µg/mL |  |

| Compound | EC50 [1] | EC50 [2] | also measured |
| --- | --- | --- | --- |
| O=C(Nc1cccc(Oc2ccccc2)c1)Nc1cc(C(F)(F)F)ccc1Oc1ccc(Cl)cc1Cl | 0.3 µg/mL | 0.2 µg/mL |  |
| N#Cc1cc(Cl)ccc1Oc1ccc(Cl)cc1Cl | 20000 nM | 43000 nM |  |
| N#Cc1cccc(NC(=O)Nc2cc(C(F)(F)F)ccc2Oc2ccc(Cl)cc2Cl)c1 | 0.14 µg/mL | 0.14 µg/mL |  |
| CC(C)(N)c1cc(Cl)ccc1Oc1ccc(Cl)cc1Cl | 7200 nM | 1800 nM |  |
| O=C(Nc1cc(C(F)(F)F)cc(C(F)(F)F)c1)Nc1cc(C(F)(F)F)ccc1Oc1ccc(Cl)cc1Cl | 0.037 µg/mL | 0.044 µg/mL |  |
| O=C(Nc1cccc(Cc2ccccc2)c1)Nc1cc(C(F)(F)F)ccc1Oc1ccc(Cl)cc1Cl | 0.3 µg/mL | 0.3 µg/mL |  |
| O=C(O)c1cc(Cl)ccc1Oc1ccc(Cl)cc1Cl | > 150000 nM | > 150000 nM |  |
| Clc1ccc(Oc2ccc(Cl)cc2NCc2ccccc2)c(Cl)c1 | 9700 nM | 9400 nM |  |
| N#Cc1ccc(NC(=O)Nc2cc(C(F)(F)F)ccc2Oc2ccc(Cl)cc2Cl)cc1 | 0.14 µg/mL | 0.11 µg/mL |  |
| N#Cc1ccc(NC(=O)Nc2cc(C(F)(F)F)ccc2Oc2ccc(Cl)cc2Cl)cc1C#N | 81 nM | 140 nM |  |
| COc1cc(Cl)ccc1Oc1ccc(Cl)cc1Cl | 100000 nM | 76000 nM |  |
| CN(C(=O)N(C)c1ccc(Cl)c(C(F)(F)F)c1)c1cc(Oc2ccc(Cl)cc2Cl)cc(C(F)(F)F)c1 | 1.8 µg/mL | 2.4 µg/mL |  |
| O=C(Nc1ccc2ccccc2c1)Nc1cc(C(F)(F)F)ccc1Oc1ccc(Cl)cc1Cl | 610 nM | 410 nM | Survival [3]: inactive |
| O=C(Nc1ccc(Oc2ccc(Cl)cc2O)c(Cl)c1)N1CCOCC1 | 100000 nM | 100000 nM |  |
| NC(=O)c1cc(Cl)ccc1Oc1ccc(Cl)cc1Cl | 73000 nM | 60000 nM |  |
| N#Cc1ccc(NC(=O)Nc2cc(C(F)(F)F)ccc2Oc2ccc(Cl)cc2Cl)cc1C(F)(F)F | 130 nM | 75 nM |  |
| COc1ccc(NC(=O)Nc2cc(C(F)(F)F)ccc2Oc2ccc(Cl)cc2Cl)cc1C(F)(F)F | 180 nM | 180 nM |  |
| CN(C)c1ccc(NC(=O)Nc2cc(C(F)(F)F)ccc2Oc2ccc(Cl)cc2Cl)cc1 | 1.4 µg/mL | 1.8 µg/mL |  |
| O=C(Nc1ccc2c(c1)OCO2)Nc1cc(C(F)(F)F)ccc1Oc1ccc(Cl)cc1Cl | 1.1 µg/mL | 1.2 µg/mL |  |
| Nc1cc(Cl)ccc1Oc1ccc(Cl)cc1Cl | 52000 nM | 55000 nM |  |
| O=C(Nc1ccc(Cl)c(C(F)(F)F)c1)Nc1cc(C(F)(F)F)ccc1Oc1ccc(Cl)cc1Cl | 37 nM | 55 nM | IC50 [4]: 70 nM; IC90 [4]: 88 nM; IC50 [5]: 70 nM; IC90 [5]: 88 nM; IC50 [6]: 35 nM; IC90 [6]: 70 nM; Survival [7]: Active; IC50 [8]: 42 nM; IC90 [8]: 83 nM; Survival [9]: inactive; IC50 [10]: 66 nM; IC90 [10]: 86 nM |
| N=C(N)c1ccc(NC(=O)Nc2ccc(Oc3ccccc3)cc2)cc1 |  |  | IC50 [11]: 17000 nM; EC50 [12]: 460 nM; EC50 [13]: 87 nM |
| O=C(Nc1ccc(Oc2ccc(Cl)cc2Cl)c(C(F)(F)F)c1)Nc1ccccc1Cc1ccccc1 | 0.5 µg/mL | 0.6 µg/mL |  |
